Measured values from patent US11084826B2, “RSV antiviral pyrazolo- and triazolo-pyrimidine compounds” (Janssen Sciences Ireland Unlimited Company, priority 2015, dated 2021).

Columns and labels:
[1] = Cytotoxicity in HeLa cells, ATP content measured with the ATPlite kit; type: cell-based; conditions: human, TOX HELA pCC50
Procedure: (§1) Black 384-well clear-bottom microtiter plates (Corning, Amsterdam, The Netherlands) were filled via acoustic drop ejection using the echo liquid handler (Labcyte, Sunnyvale, Calif.). 200 nL of compound stock solutions (100% DMSO) were transferred to the assay plates. 9 serial 4-fold dilutions of compound were made, creating per quadrant the same compound concentration. The assay was initiated by adding 10 μL of culture medium to each well (RPMI medium without phenol red, 10% FBS-heat inactivated, 0.04% gentamycin (50 mg/mL). All addition steps are done by using a multidrop dispenser (Thermo Scientific, Erembodegem, Belgium). Next, rgRSV224 virus (MOI=1) diluted in culture medium was added to the plates. rgRSV224 virus is an engineered virus that includes an additional GFP gene (Hallak LK, Spillmann D, Collins PL, Peeples Me. Glycosaminoglycan sulfation requirements for respiratory syncytial virus infection; Journal of virology (2000), 74(22), 10508-13) and was in-licensed from the NIH (Bethesda, Md., USA). Finally, 20 μL of a HeLa cell suspension (3,000 cells/well) were plated. Medium, virus- and mock-infected controls were included in each test. The wells contain 0.05% DMSO per volume. Cells were incubated at 37° C. in a 5% CO2 atmosphere. Three days post-virus exposure, viral replication was quantified by measuring GFP expression in the cells by an in house developed MSM laser microscope (Tibotec, Beerse, Belgium). The EC50 was defined as the 50% inhibitory concentration for GFP expression. In parallel, compounds were incubated for three days in a set of white 384-well microtiter plates (Corning) and the cytotoxicity of compounds in HeLa cells was determined by measuring the ATP content of the cells using the ATPlite kit (Perkin Elmer, Zaventem, Belgium) according to the manufacturer's instructions. The CC50 was defined as the 50% concentration for cytotoxicity.

[2] = system: rgRSV224 virus; assay: Antiviral activity: inhibition of rgRSV224 (GFP-expressing RSV) replication in HeLa cells, GFP expression read-out; type: cell-based, respiratory syncytial virus (RSV); conditions: human respiratory syncytial virus, HeLa, read-out: RSV HELA pEC50, rgRSV224 virus (MOI=1) in HeLa cells, GFP read-out (converted)
Procedure: as §1

`CCc1cc(C(=O)N2CCCCC[C@H]2C)nc2cc(-c3ccc(N(C)[C@H]4C[C@@H](C(=O)O)C4)cc3F)nn12` (racemic) [Compound W23] gave a melting point of 182.69 °C, a CC50 at 3 days [1] of 79400 nM and an EC50 [2] of 75.9 nM.
With `C[C@@H]1CCCCCN1C(=O)c1cc(C2(C)COC2)n2nc(-c3ccc(-n4cc(C(=O)O)cn4)cc3F)cc2n1` (racemic) [Compound W36] the melting point was 223.2 °C, the CC50 at 3 days [1] was greater than 25100 nM and the EC50 [2] was 151 nM.
Work on `CC1c2ccsc2CCN1C(=O)c1cc(C2(C)CC2)n2nc(-c3ccc(-n4cc(C(=O)O)cn4)cc3F)cc2n1` (racemic) [Compound W39] yielded a melting point of 265.13 °C, a CC50 at 3 days [1] of 55000 nM and an EC50 [2] of 28.2 nM.
Compound `CCc1cc(C(=O)N2CCc3sccc3[C@H]2C)nc2cc(-c3ccc(-n4cc(C(=O)O)cn4)cc3F)nn12` (racemic) [Compound W40] has a melting point of 168.11 °C, a CC50 at 3 days [1] of 36300 nM and an EC50 [2] of 21.9 nM.
`CCc1cc(C(=O)N2CCn3cccc3C2C)nc2cc(-c3ccc(/C=C/C(=O)O)cc3F)nn12` (single isomer, unassigned) [Compound M44] showed a melting point of 127.94 °C, a CC50 at 3 days [1] greater than 25100 nM and an EC50 [2] of 18.2 nM.
For `CCc1cc(C(=O)N2CCc3sccc3[C@H]2C)nc2cc(-c3cccc(/C=C/C(=O)O)c3F)nn12` (single isomer, unassigned) [Compound M49], the melting point was 262.19 °C, the CC50 at 3 days [1] was 41700 nM and the EC50 [2] was 10 nM.
`C[C@@H]1c2ccccc2CCN1C(=O)c1cc(C2CC2)n2nc(-c3ccc(C4C[C@H]4C(=O)O)cc3F)cc2n1` (single isomer, unassigned) [Compound O5] gave a melting point of 222.18 °C, a CC50 at 3 days [1] of 55000 nM and an EC50 [2] of 11 nM.
Work on `C[C@@H]1CCCCCN1C(=O)c1cc(C2CC2)n2nc(-c3ccc(C4C[C@H]4C(=O)O)cc3F)cc2n1` (single isomer, unassigned) [Compound O7] yielded a melting point of 245.75 °C, a CC50 at 3 days [1] of 45700 nM and an EC50 [2] of 39.8 nM.
Compound `CC1c2ccsc2CCN1C(=O)c1cc(C2CC2)n2nc(-c3ccc(C4C[C@H]4C(=O)O)cc3F)cc2n1` (single isomer, unassigned) [Compound O20] has a melting point of 252.97 °C, a CC50 at 3 days [1] of 52500 nM and an EC50 [2] of 8.13 nM.
Compound `CCc1cc(C(=O)N2CCc3sccc3C2C)nc2cc(-c3ccc(C4C[C@H]4C(=O)O)cc3F)nn12` (single isomer, unassigned) [Compound O22] has a melting point of 228.98 °C, a CC50 at 3 days [1] of 47900 nM and an EC50 [2] of 6.92 nM.
`CC1c2ccsc2CCN1C(=O)c1cc(C2CC2)n2nc(-c3ccc(N4CC[C@H](C(=O)O)C4)cc3F)cc2n1` (single isomer, unassigned) [Compound W37] showed a melting point of 231.1 °C, a CC50 at 3 days [1] of 45700 nM and an EC50 [2] of 5.62 nM.
Work on `CCc1cc(C(=O)N2CCc3sccc3C2C)nc2cc(-c3ccc(N4CC[C@H](C(=O)O)C4)cc3F)nn12` (single isomer, unassigned) [Compound W43] yielded a melting point of 252.56 °C, a CC50 at 3 days [1] of 49000 nM and an EC50 [2] of 2.75 nM.
With `CCc1cc(C(=O)N2CCCCCC2C)nc2cc(-c3cccs3)nn12` (stereo not drawn) [Compound A1] the melting point was 110 to 120 °C, the CC50 at 3 days [1] was greater than 50100 nM and the EC50 [2] was 5010 nM.
`CCc1cc(C(=O)N2CCCCCC2C)nc2cc(-c3ccccc3F)nn12` (stereo not drawn) [Compound A4] showed a melting point of 120 to 125 °C, a CC50 at 3 days [1] of 45700 nM and an EC50 [2] of 1020 nM.
Compound `CCc1cc(C(=O)N2CCCCCC2C)nc2cc(-c3ccc(N(C)C)cc3F)nn12` (stereo not drawn) [Compound A6] has a melting point of 84 °C, a CC50 at 3 days [1] of 57500 nM and an EC50 [2] of 724 nM.
For `CCc1cc(C(=O)N2CCCCCC2C)nc2cc(-c3ccc4[nH]ccc4c3)nn12` (stereo not drawn) [Compound A7], the melting point was 195 to 197 °C, the CC50 at 3 days [1] was greater than 25100 nM and the EC50 [2] was 589 nM.
Compound `CCc1cc(C(=O)N2CCCCCC2C)nc2cc(-c3ccc4c(c3)CC(=O)N4)nn12` (stereo not drawn) [Compound A8] has a melting point of 230 to 235 °C, a CC50 at 3 days [1] greater than 25100 nM and an EC50 [2] of 646 nM.
`CCc1cc(C(=O)N2CCCCCC2C)nc2cc(-c3ccc4c(c3)CC(=O)N4C)nn12` (stereo not drawn) [Compound A9] showed a melting point of 225 to 230 °C, a CC50 at 3 days [1] greater than 25100 nM and an EC50 [2] of 537 nM.
`CCc1cc(C(=O)N2CCCCCC2C)nc2cc(-c3ccc4c(c3)CCN4C)nn12` (stereo not drawn) [Compound A10] showed a melting point of 155 °C, a CC50 at 3 days [1] greater than 25100 nM and an EC50 [2] of 2090 nM.
`CCc1cc(C(=O)N2CCCCCC2C)nc2cc(-c3ccc4ncccc4c3)nn12` (stereo not drawn) [Compound A11] showed a melting point of 170 to 175 °C, a CC50 at 3 days [1] greater than 25100 nM and an EC50 [2] of 646 nM.
For `CCc1cc(C(=O)N2CCCCCC2C)nc2cc(-c3ccc4nc(C)ccc4c3)nn12` (stereo not drawn) [Compound A12], the melting point was 195 to 200 °C, the CC50 at 3 days [1] was greater than 25100 nM and the EC50 [2] was 871 nM.
`CCc1cc(C(=O)N2CCCCCC2C)nc2cc(-c3ccc4[nH]cnc4c3)nn12` (stereo not drawn) [Compound A13] showed a melting point of 145 to 150 °C, a CC50 at 3 days [1] greater than 25100 nM and an EC50 [2] of 331 nM.
With `CCc1cc(C(=O)N2CCCCCC2C)nc2cc(-c3ccc4c(c3)ncn4C)nn12` (stereo not drawn) [Compound A14] the melting point was 115 °C, the CC50 at 3 days [1] was greater than 25100 nM and the EC50 [2] was 398 nM.
With `CCc1cc(C(=O)N2CCCCCCC2C)nc2cc(-c3ccccc3F)nn12` (stereo not drawn) [Compound A18] the melting point was 125 to 130 °C, the CC50 at 3 days [1] was greater than 100000 nM and the EC50 [2] was 355 nM.
For `CCc1cc(C(=O)N2CCCCCC2C)nc2cc(-c3ccc(CO)cc3)nn12` (stereo not drawn) [Compound A21], the melting point was 155 to 160 °C, the CC50 at 3 days [1] was greater than 100000 nM and the EC50 [2] was 891 nM.
For `CCc1cc(C(=O)N2CCCCCC2C)nc2cc(-c3cc4cccnc4cc3F)nn12` (stereo not drawn) [Compound A24], the melting point was 145 to 150 °C, the CC50 at 3 days [1] was greater than 25100 nM and the EC50 [2] was 302 nM.
Work on `CCc1cc(C(=O)N2CCCCCC2C)nc2cc(-c3ccc(C(N)=O)cc3)nn12` (stereo not drawn) [Compound A25] yielded a melting point of 155 to 160 °C, a CC50 at 3 days [1] greater than 100000 nM and an EC50 [2] of 550 nM.
For `CCc1cc(C(=O)N2CCCCC[C@H]2C)nc2cc(-c3ccc(C(N)=O)cc3)nn12` [Compound A26], the melting point was 160 to 165 °C, the CC50 at 3 days [1] was greater than 25100 nM and the EC50 [2] was 195 nM.
`CCc1cc(C(=O)N2CCCC[C@H]2C)nc2cc(-c3ccc(C(N)=O)cc3)nn12` [Compound A27] gave a melting point of 160 to 165 °C, a CC50 at 3 days [1] greater than 25100 nM and an EC50 [2] of 871 nM.
Work on `CCCC(C)N(C)C(=O)c1cc(CC)n2nc(-c3ccc(C(N)=O)cc3)cc2n1` (stereo not drawn) [Compound A28] yielded a melting point of 140 to 145 °C, a CC50 at 3 days [1] greater than 25100 nM and an EC50 [2] of 794 nM.
For `CCc1cc(C(=O)N2CCCCCCC2C)nc2cc(-c3ccc(C(N)=O)cc3)nn12` (stereo not drawn) [Compound A29], the melting point was 170 to 175 °C, the CC50 at 3 days [1] was greater than 25100 nM and the EC50 [2] was 155 nM.
In the case of `CCc1cc(C(=O)N2CCCCCC2C)nc2cc(-c3ccc(NC(=O)NCC4CCCO4)cc3F)nn12` (stereo not drawn) [Compound B1], the melting point is reported as 140 °C, the CC50 at 3 days [1] is reported as greater than 100000 nM and the EC50 [2] is reported as 129 nM.
`CCCC(C)N(C)C(=O)c1cc(CC)n2nc(-c3ccc(NC(=O)NCC4CCCO4)cc3F)cc2n1` (stereo not drawn) [Compound B2] showed a melting point of 180 to 185 °C, a CC50 at 3 days [1] greater than 100000 nM and an EC50 [2] of 407 nM.
Work on `CCc1cc(C(=O)N2CCCCCCC2C)nc2cc(-c3ccc(NC(=O)NCC4CCCO4)cc3F)nn12` (stereo not drawn) [Compound B3] yielded a melting point of 195 to 200 °C, a CC50 at 3 days [1] greater than 25100 nM and an EC50 [2] of 79.4 nM.
Compound `CCc1cc(C(=O)N2CCCCCC2C)nc2cc(-c3ccc(NC(=O)NCC4CCCO4)cc3C)nn12` (stereo not drawn) [Compound B4] has a melting point of 123 °C, a CC50 at 3 days [1] of 55000 nM and an EC50 [2] of 257 nM.
`CCc1cc(C(=O)N2CCCCCC2C)nc2cc(-c3ccc(NC(=O)NCC4CCCO4)cc3)nn12` (stereo not drawn) [Compound B5] showed a melting point of 205 °C, a CC50 at 3 days [1] greater than 100000 nM and an EC50 [2] of 166 nM.
`CCc1cc(C(=O)N2CCCCCC2C)nc2cc(-c3ccc(NC(=O)Nc4cccc(F)c4)cc3)nn12` (stereo not drawn) [Compound B6] gave a melting point of 260 to 265 °C, a CC50 at 3 days [1] greater than 100000 nM and an EC50 [2] of 741 nM.
For `CCc1cc(C(=O)N2CCCCC2C)nc2cc(-c3ccc(NC(=O)NCC4CCCO4)cc3)nn12` (stereo not drawn) [Compound B7], the melting point was 175 to 180 °C, the CC50 at 3 days [1] was greater than 100000 nM and the EC50 [2] was 631 nM.
Compound `CCc1cc(C(=O)N2CCCCCC2C)nc2cc(-c3ccc(NC(=O)NC4CC4)cc3)nn12` (stereo not drawn) [Compound B8] has a melting point of 240 to 245 °C, a CC50 at 3 days [1] of 17000 nM and an EC50 [2] of 240 nM.
Compound `CCc1cc(C(=O)N2CCCCCC2C)nc2cc(-c3ccc(NC(=O)NCC4CC4)cc3)nn12` (stereo not drawn) [Compound B9] has a melting point of 165 to 170 °C, a CC50 at 3 days [1] greater than 100000 nM and an EC50 [2] of 501 nM.
Work on `CC1CCCCCN1C(=O)c1cc(N2CCCC2)n2nc(-c3ccc(NC(=O)NCC4CCCO4)cc3)cc2n1` (stereo not drawn) [Compound B10] yielded a melting point of 228 to 230 °C, a CC50 at 3 days [1] greater than 100000 nM and an EC50 [2] of 316 nM.
